Laboratory results reported in patent US6358885B1, “Substituted phenylheterocyclic herbicides” (Mississippi State University, priority 1992, dated 2002).

Key:
rape = assay: Test B preemergence/postemergence greenhouse plant response rating 0 to 10; assay type: in vivo, Brassica napus; settings: for Plant response rating, Rape: 0 to 10 scale
Procedure, shortened: (§1)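 Postemergence treatment of plants two to eighteen cm tall ran alongside preemergence treatment of planted seed, each using compound in a non-phytotoxic solvent.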

wild buckwheat = assay: Test C preemergence/postemergence greenhouse plant response rating 0 to 100; assay type: in vivo, Polygonum convolvulus; settings: for Plant response rating, Wild buckwheat: 125 g/ha, 0 to 100 scale
Procedure, shortened: (§2)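 Compounds in non-phytotoxic solvent applied preemergence to sandy loam one day after planting, postemergence at the 1–4 leaf stage, or to ~2.5 cm floodwater over silt loam.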

chickweed [1] = assay: Test B preemergence/postemergence greenhouse plant response rating 0 to 10; assay type: in vivo, Stellaria media; settings: for Plant response rating, Chickweed: 0 to 10 scale
Procedure, shortened: as §1

wheat = assay: as above; assay type: in vivo, Triticum aestivum; settings: for Plant response rating, Wheat: 0 to 10 scale
Procedure, shortened: as §1

corn = assay: as above; assay type: in vivo, Zea mays; settings: for Plant response rating, Corn: 0 to 10 scale
Procedure, shortened: as §1

giant foxtail [2] = assay: Test C preemergence/postemergence greenhouse plant response rating 0 to 100; assay type: in vivo, Setaria faberii; settings: for Plant response rating, Giant foxtail: 125 g/ha, 0 to 100 scale
Procedure, shortened: as §2

crabgrass [3] = assay: Test B preemergence/postemergence greenhouse plant response rating 0 to 10; assay type: in vivo, Digitaria spp.; settings: for Plant response rating, Crabgrass: 0 to 10 scale
Procedure, shortened: as §1

duck salad = assay: Test C flood test plant response rating 0 to 100; assay type: in vivo, Heteranthera limosa
Procedure, shortened: as §2

giant foxtail [4] = assay: Test B preemergence/postemergence greenhouse plant response rating 0 to 10; assay type: in vivo, Setaria faberii; settings: for Plant response rating, Giant foxtail: 0 to 10 scale
Procedure, shortened: as §1

chickweed [5] = assay: Test C preemergence/postemergence greenhouse plant response rating 0 to 100; assay type: in vivo, Stellaria media; settings: for Plant response rating, Chickweed: 125 g/ha, 0 to 100 scale
Procedure, shortened: as §2

barnyardgrass = assay: Test B preemergence/postemergence greenhouse plant response rating 0 to 10; assay type: in vivo, Echinochloa crus-galli; settings: for Plant response rating, Barnyardgrass: 0 to 10 scale
Procedure, shortened: as §1

wild oat = assay: Test C preemergence/postemergence greenhouse plant response rating 0 to 100; assay type: in vivo, Avena fatua; settings: for Plant response rating, Wild oat: 125 g/ha, 0 to 100 scale
Procedure, shortened: as §2

downy brome = assay: as above; assay type: in vivo, Bromus tectorum; settings: for Plant response rating Downy Brome: 125 g/ha, 0 to 100 scale
Procedure, shortened: as §2

barley = assay: Test B preemergence/postemergence greenhouse plant response rating 0 to 10; assay type: in vivo, Hordeum vulgare; settings: for Plant response rating, Barley: 0 to 10 scale
Procedure, shortened: as §1

sorghum = assay: as above; assay type: in vivo, Sorghum bicolor; settings: for Plant response rating, Sorghum: 0 to 10 scale
Procedure, shortened: as §1

crabgrass [6] = assay: Test C preemergence/postemergence greenhouse plant response rating 0 to 100; assay type: in vivo, Digitaria sanguinalis; settings: for Plant response rating, Crabgrass: 125 g/ha, 0 to 100 scale
Procedure, shortened: as §2

bedstraw = assay: as above; assay type: in vivo, Galium aparine; settings: for Plant response rating, Bedstraw: 125 g/ha, 0 to 100 scale
Procedure, shortened: as §2

rice = assay: Test C flood test plant response rating 0 to 100; assay type: in vivo, Oryza sativa
Procedure, shortened: as §2

[7] = POSTEMERGENCE section, flood test, Rate 2 g/ha
[8] = Rate 8 g/ha, under POSTEMERGENCE head (flood test species)
[9] = Rate 31 g/ha, under POSTEMERGENCE head (flood test species)
[10] = flood test species listed under POSTEMERGENCE, 125 g/ha, 0 to 100 scale

CCOCOc1cc(-c2nn3c(c2Cl)CCCC3)c(F)cc1Cl [Compound 59]
Plant response rating, Rape (rape; POSTEMERGENCE, Rate 50 g/ha): 10
Plant response rating, Rape (rape; PREEMERGENCE, Rate 50 g/ha): 5
Plant response rating (0 to 10 scale), Rape (rape; PREEMERGENCE, Rate 200 g/ha): 10
Plant response rating, Rape (rape; Rate 200 g/ha, POSTEMERGENCE): 10
Plant response rating, Wild buckwheat (wild buckwheat; POSTEMERGENCE): 100
Plant response rating (0 to 100), Wild buckwheat (wild buckwheat; POSTEMERGENCE, Rate 2 g/ha): 100
Plant response rating, Wild buckwheat (wild buckwheat; PREEMERGENCE): 100
Plant response rating (0 to 100), Wild buckwheat (wild buckwheat; PREEMERGENCE, Rate 2 g/ha): 0
Plant response rating (0 to 100), Wild buckwheat (wild buckwheat; Rate 8 g/ha, POSTEMERGENCE): 100
Plant response rating (0 to 100), Wild buckwheat (wild buckwheat; Rate 8 g/ha, PREEMERGENCE): 0
Plant response rating (0 to 100), Wild buckwheat (wild buckwheat; Rate 31 g/ha, POSTEMERGENCE): 100
Plant response rating (0 to 100), Wild buckwheat (wild buckwheat; Rate 31 g/ha, PREEMERGENCE): 50
Plant response rating, Chickweed (chickweed [1]; POSTEMERGENCE, Rate 50 g/ha): 6
Plant response rating, Chickweed (chickweed [1]; PREEMERGENCE, Rate 50 g/ha): 4
Plant response rating (0 to 10 scale), Chickweed (chickweed [1]; PREEMERGENCE, Rate 200 g/ha): 9
Plant response rating, Chickweed (chickweed [1]; Rate 200 g/ha, POSTEMERGENCE): 8
Plant response rating, Wheat (wheat; POSTEMERGENCE, Rate 50 g/ha): 7
Plant response rating, Wheat (wheat; PREEMERGENCE, Rate 50 g/ha): 4
Plant response rating (0 to 10 scale), Wheat (wheat; PREEMERGENCE, Rate 200 g/ha): 4
Plant response rating, Wheat (wheat; Rate 200 g/ha, POSTEMERGENCE): 6
Plant response rating, Corn (corn; POSTEMERGENCE, Rate 50 g/ha): 4
Plant response rating, Corn (corn; PREEMERGENCE, Rate 50 g/ha): 1
Plant response rating (0 to 10 scale), Corn (corn; PREEMERGENCE, Rate 200 g/ha): 2
Plant response rating, Corn (corn; Rate 200 g/ha, POSTEMERGENCE): 5
Plant response rating, Giant foxtail (giant foxtail [2]; POSTEMERGENCE): 90
Plant response rating (0 to 100), Giant foxtail (giant foxtail [2]; POSTEMERGENCE, Rate 2 g/ha): 20
Plant response rating, Giant foxtail (giant foxtail [2]; PREEMERGENCE): 90
Plant response rating (0 to 100), Giant foxtail (giant foxtail [2]; PREEMERGENCE, Rate 2 g/ha): 0
Plant response rating (0 to 100), Giant foxtail (giant foxtail [2]; Rate 8 g/ha, POSTEMERGENCE): 40
Plant response rating (0 to 100), Giant foxtail (giant foxtail [2]; Rate 8 g/ha, PREEMERGENCE): 10
Plant response rating (0 to 100), Giant foxtail (giant foxtail [2]; Rate 31 g/ha, POSTEMERGENCE): 70
Plant response rating (0 to 100), Giant foxtail (giant foxtail [2]; Rate 31 g/ha, PREEMERGENCE): 50
Plant response rating, Crabgrass (crabgrass [3]; POSTEMERGENCE, Rate 50 g/ha): 4
Plant response rating, Crabgrass (crabgrass [3]; PREEMERGENCE, Rate 50 g/ha): 5
Plant response rating (0 to 10 scale), Crabgrass (crabgrass [3]; PREEMERGENCE, Rate 200 g/ha): 10
Plant response rating, Crabgrass (crabgrass [3]; Rate 200 g/ha, POSTEMERGENCE): 5
Plant response rating (0 to 100), Duck salad (duck salad; [7]): 0
Plant response rating (0 to 100), Duck salad (duck salad; [8]): 0
Plant response rating (0 to 100), Duck salad (duck salad; [9]): 40
Plant response rating Duck salad (duck salad; [10]): 80
Plant response rating, Giant foxtail (giant foxtail [4]; POSTEMERGENCE, Rate 50 g/ha): 6
Plant response rating, Giant foxtail (giant foxtail [4]; PREEMERGENCE, Rate 50 g/ha): 9
Plant response rating (0 to 10 scale), Giant foxtail (giant foxtail [4]; PREEMERGENCE, Rate 200 g/ha): 10
Plant response rating, Giant foxtail (giant foxtail [4]; Rate 200 g/ha, POSTEMERGENCE): 7
Plant response rating, Chickweed (chickweed [5]; POSTEMERGENCE): 90
Plant response rating (0 to 100), Chickweed (chickweed [5]; POSTEMERGENCE, Rate 2 g/ha): 20
Plant response rating, Chickweed (chickweed [5]; PREEMERGENCE): 30
Plant response rating (0 to 100), Chickweed (chickweed [5]; PREEMERGENCE, Rate 2 g/ha): 0
Plant response rating (0 to 100), Chickweed (chickweed [5]; Rate 8 g/ha, POSTEMERGENCE): 40
Plant response rating (0 to 100), Chickweed (chickweed [5]; Rate 8 g/ha, PREEMERGENCE): 0
Plant response rating (0 to 100), Chickweed (chickweed [5]; Rate 31 g/ha, POSTEMERGENCE): 70
Plant response rating (0 to 100), Chickweed (chickweed [5]; Rate 31 g/ha, PREEMERGENCE): 10
Plant response rating, Barnyardgrass (barnyardgrass; POSTEMERGENCE, Rate 50 g/ha): 5
Plant response rating, Barnyardgrass (barnyardgrass; PREEMERGENCE, Rate 50 g/ha): 6
Plant response rating (0 to 10 scale), Barnyardgrass (barnyardgrass; PREEMERGENCE, Rate 200 g/ha): 8
Plant response rating, Barnyardgrass (barnyardgrass; Rate 200 g/ha, POSTEMERGENCE): 9
Plant response rating, Wild oat (wild oat; POSTEMERGENCE): 60
Plant response rating (0 to 100), Wild oat (wild oat; POSTEMERGENCE, Rate 2 g/ha): 10
Plant response rating, Wild oat (wild oat; PREEMERGENCE): 30
Plant response rating (0 to 100), Wild oat (wild oat; PREEMERGENCE, Rate 2 g/ha): 0
Plant response rating (0 to 100), Wild oat (wild oat; Rate 8 g/ha, POSTEMERGENCE): 30
Plant response rating (0 to 100), Wild oat (wild oat; Rate 8 g/ha, PREEMERGENCE): 0
Plant response rating (0 to 100), Wild oat (wild oat; Rate 31 g/ha, POSTEMERGENCE): 40
Plant response rating (0 to 100), Wild oat (wild oat; Rate 31 g/ha, PREEMERGENCE): 0
Plant response rating Downy Brome (downy brome; POSTEMERGENCE): 90
Plant response rating (0 to 100), Downy Brome (downy brome; POSTEMERGENCE, Rate 2 g/ha): 20
Plant response rating Downy Brome (downy brome; PREEMERGENCE): 60
Plant response rating (0 to 100), Downy Brome (downy brome; PREEMERGENCE, Rate 2 g/ha): 0
Plant response rating (0 to 100), Downy Brome (downy brome; Rate 8 g/ha, POSTEMERGENCE): 50
Plant response rating (0 to 100), Downy Brome (downy brome; Rate 8 g/ha, PREEMERGENCE): 0
Plant response rating (0 to 100), Downy Brome (downy brome; Rate 31 g/ha, POSTEMERGENCE): 70
Plant response rating (0 to 100), Downy Brome (downy brome; Rate 31 g/ha, PREEMERGENCE): 30
Plant response rating, Barley (barley; POSTEMERGENCE, Rate 50 g/ha): 4
Plant response rating, Barley (barley; PREEMERGENCE, Rate 50 g/ha): 2
Plant response rating (0 to 10 scale), Barley (barley; PREEMERGENCE, Rate 200 g/ha): 5
Plant response rating, Barley (barley; Rate 200 g/ha, POSTEMERGENCE): 4
Plant response rating, Sorghum (sorghum; POSTEMERGENCE, Rate 50 g/ha): 3
Plant response rating, Sorghum (sorghum; PREEMERGENCE, Rate 50 g/ha): 1
Plant response rating (0 to 10 scale), Sorghum (sorghum; PREEMERGENCE, Rate 200 g/ha): 5
Plant response rating, Sorghum (sorghum; Rate 200 g/ha, POSTEMERGENCE): 4
Plant response rating, Crabgrass (crabgrass [6]; POSTEMERGENCE): 70
Plant response rating (0 to 100), Crabgrass (crabgrass [6]; POSTEMERGENCE, Rate 2 g/ha): 10
Plant response rating, Crabgrass (crabgrass [6]; PREEMERGENCE): 90
Plant response rating (0 to 100), Crabgrass (crabgrass [6]; PREEMERGENCE, Rate 2 g/ha): 0
Plant response rating (0 to 100), Crabgrass (crabgrass [6]; Rate 8 g/ha, POSTEMERGENCE): 30
Plant response rating (0 to 100), Crabgrass (crabgrass [6]; Rate 8 g/ha, PREEMERGENCE): 0
Plant response rating (0 to 100), Crabgrass (crabgrass [6]; Rate 31 g/ha, POSTEMERGENCE): 40
Plant response rating (0 to 100), Crabgrass (crabgrass [6]; Rate 31 g/ha, PREEMERGENCE): 30
Plant response rating, Bedstraw (bedstraw; POSTEMERGENCE): 100
Plant response rating (0 to 100), Bedstraw (bedstraw; POSTEMERGENCE, Rate 2 g/ha): 50
Plant response rating, Bedstraw (bedstraw; PREEMERGENCE): 70
Plant response rating (0 to 100), Bedstraw (bedstraw; PREEMERGENCE, Rate 2 g/ha): 0
Plant response rating (0 to 100), Bedstraw (bedstraw; Rate 8 g/ha, POSTEMERGENCE): 75
Plant response rating (0 to 100), Bedstraw (bedstraw; Rate 8 g/ha, PREEMERGENCE): 0
Plant response rating (0 to 100), Bedstraw (bedstraw; Rate 31 g/ha, POSTEMERGENCE): 100
Plant response rating (0 to 100), Bedstraw (bedstraw; Rate 31 g/ha, PREEMERGENCE): 50
Plant response rating (0 to 100), Rice Japonica (rice; [7]): 0
Plant response rating (0 to 100), Rice Japonica (rice; [8]): 0
Plant response rating (0 to 100), Rice Japonica (rice; [9]): 0
Plant response rating Rice Japonica (rice; [10]): 40
